# Results published in ChEMBL document CHEMBL6127048, “Water-soluble and predictable-release triptolide prodrugs block bleomycin-induced pulmonary fibrosis in mice” (Eur J Med Chem, 2024).
# Calls of active or inactive are those of the source. No cut-off for these calls is given here.
# Key:
# Mus musculus [1] = experiment: Anti-fibrotic activity in bleomycin-induced pulmonary fibrosis C57BL/6 mouse model assessed as decrease in myofibroblast by measuring alpha-SMA level at 60 mg/kg, po pretreated with bleomycin for 5 days and followed by compound administration for 15 days; type: functional, organism-based; conditions: time 15.0 day
# Mus musculus [2] = experiment: Anti-fibrotic activity in bleomycin-induced pulmonary fibrosis C57BL/6 mouse model assessed as decrease in hydroxyproline level in lung at 60 mg/kg, po pretreated with bleomycin from day 1 and followed by compound administration for 15 days; type: functional, organism-based; conditions: time 15.0 day
# Mus musculus [3] = experiment: Anti-fibrotic activity in bleomycin-induced pulmonary fibrosis C57BL/6 mouse model assessed as appearance of red collagen deposits in lung at 60 mg/kg, po pretreated with bleomycin for 5 days and followed by compound administration for 15 days by H and E staining based analysis; type: functional, organism-based; conditions: time 15.0 day
# Mus musculus [4] = experiment: Anti-fibrotic activity in bleomycin-induced pulmonary fibrosis C57BL/6 mouse model assessed as increase in body weight at 60 mg/kg, po pretreated with bleomycin for 5 days and followed by compound administration for 14 days; type: functional, organism-based; conditions: time 14.0 day
# Mus musculus [5] = experiment: Anti-fibrotic activity in bleomycin-induced pulmonary fibrosis C57BL/6 mouse model assessed as decrease in hydroxyproline level in lung at 60 mg/kg, po pretreated with bleomycin for 5 days and followed by compound administration for 15 days; type: functional, organism-based; conditions: time 15.0 day
# Mus musculus [6] = experiment: Anti-fibrotic activity in bleomycin-induced pulmonary fibrosis C57BL/6 mouse model assessed as decrease in lung index at 60 mg/kg, po pretreated with bleomycin for 5 days and followed by compound administration for 15 days; type: functional, organism-based; conditions: time 15.0 day
# [7] = Solubility of compound in water by HPLC analysis; type: physicochemical
# [8] = Stability of compound in PBS buffer at pH 7.4 assessed as half life; type: physicochemical
# [9] = Stability in human plasma assessed as half life measured upto 24 hrs by HPLC analysis; type: ADME, cell-free
# [10] = Stability in mouse plasma assessed as half life measured upto 24 hrs by HPLC analysis; type: ADME, cell-free
# Mus musculus [11] = experiment: Anti-fibrotic activity in bleomycin-induced pulmonary fibrosis C57BL/6 mouse model assessed as decrease in TGF-beta1 level in BALF at 0.66 mg/kg, ip pretreated with bleomycin for 5 days and followed by compound administration for 15 days by ELISA analysis; type: functional, organism-based; conditions: time 15.0 day
# [12] = AUC (0 to infinity) in Kunming mouse at 1 mg/kg, iv measured upto 48 hrs by LC/MS analysis; type: ADME, organism-based; conditions: in vivo
# Mus musculus [13] = experiment: Anti-fibrotic activity in bleomycin-induced pulmonary fibrosis C57BL/6 mouse model assessed as appearance of red collagen deposits in lung at 0.33 mg/kg, ip pretreated with bleomycin for 5 days and followed by compound administration for 15 days by H and E staining based analysis; type: functional, organism-based; conditions: time 15.0 day
# HLF [14] = experiment: Inhibition of TGF-betal induced alpha-SMA production in human HLF at 5 to 20 nM incubated for 2 hrs by DAPI staining based laser scanning confocal microscopic analysis; type: functional, cell-based; conditions: dose 5-20 nM
# Mus musculus [15] = experiment: Anti-fibrotic activity in bleomycin-induced pulmonary fibrosis C57BL/6 mouse model assessed as decrease in TGF-beta1 level in BALF at 0.66 mg/kg, ip pretreated with bleomycin from day 1 and followed by compound administration for 15 days by ELISA analysis; type: functional, organism-based; conditions: time 15.0 day
# [16] = Toxicity in C57BL/6 mouse assessed as change in BUN level at 0.33 mg/kg, ip measured after 15 days; type: organism-based; conditions: in vivo, 360 h, time 15 day
# [17] = MRT (0 to t) in Kunming mouse at 1 mg/kg, iv measured upto 48 hrs by LC/MS analysis; type: ADME, organism-based; conditions: in vivo
# Mus musculus [18] = experiment: Anti-fibrotic activity in bleomycin-induced pulmonary fibrosis C57BL/6 mouse model assessed as downregulation of sEphrin-B2 level in BALF at 0.33 to 0.66 mg/kg, ip pretreated with bleomycin for 5 days and followed by compound administration for 15 days by ELISA analysis; type: functional, organism-based; conditions: dose 0.33-0.66 mg/kg, time 15.0 day
# Mus musculus [19] = experiment: Anti-fibrotic activity in bleomycin-induced pulmonary fibrosis C57BL/6 mouse model assessed as decrease in myofibroblast by measuring alpha-SMA level at 0.33 to 0.66 mg/kg, ip pretreated with bleomycin for 5 days and followed by compound administration for 15 days; type: functional, organism-based; conditions: dose 0.33-0.66 mg/kg, time 15.0 day
# [20] = Clearance in Kunming mouse at 1 mg/kg, iv measured upto 48 hrs by LC/MS analysis; type: ADME, organism-based; conditions: in vivo
# [21] = Volume of distribution in Kunming mouse at 1 mg/kg, iv measured upto 48 hrs by LC/MS analysis; type: ADME, organism-based; conditions: in vivo
# [22] = Toxicity in C57BL/6 mouse assessed as change in creatinine level at 0.33 mg/kg, ip measured after 15 days; type: organism-based; conditions: in vivo, 360 h, time 15 day
# Mus musculus [23] = experiment: Anti-fibrotic activity in bleomycin-induced pulmonary fibrosis C57BL/6 mouse model assessed as infiltrated interstitial matrix in lung at 60 mg/kg, po pretreated with bleomycin for 5 days and followed by compound administration for 15 days by H and E staining based analysis; type: functional, organism-based; conditions: time 15.0 day
# Mus musculus [24] = experiment: Anti-fibrotic activity in bleomycin-induced pulmonary fibrosis C57BL/6 mouse model assessed as infiltrated interstitial matrix in lung at 0.33 mg/kg, ip pretreated with bleomycin for 5 days and followed by compound administration for 15 days by H and E staining based analysis; type: functional, organism-based; conditions: time 15.0 day
# [25] = (§1) Prodrug conversion of the compound in phosphate buffer saline at pH 6.5 assessed as (6aS,7aS,8R,8aR,9aS,9bS,10aS,10bS)-8-hydroxy-8a-isopropyl-10b-methyl-2,5,5b,6,6a,8,8a,9a,9b,10b-decahydrotris(oxireno)[2',3':4b,5;2'',3'':6,7;2''',3''':8a,9]phenanthro[1,2-c]furan-3(1H)-one formation by measuring half life; type: ADME
# Mus musculus [26] = experiment: Anti-fibrotic activity in bleomycin-induced pulmonary fibrosis C57BL/6 mouse model assessed as increase in body weight at 0.33 mg/kg, ip pretreated with bleomycin for 5 days and followed by compound administration for 14 days; type: functional, organism-based; conditions: time 14.0 day
# HLF [27] = experiment: Upregulation of ADAM 10 expression in TGF-beta1-induced human HLF at 5 to 20 nM; type: functional, cell-based; conditions: dose 5-20 nM
# [28] = as §1, with “8” for “6.5”; type: ADME
# Mus musculus [29] = experiment: Anti-fibrotic activity in bleomycin-induced pulmonary fibrosis C57BL/6 mouse model at 0.66 mg/kg, ip pretreated with bleomycin for 5 days and followed by compound administration for 15 days; type: functional, organism-based; conditions: time 15.0 day
# [30] = MRT(0 to infinity) in Kunming mouse at 1 mg/kg, iv measured upto 48 hrs by LC/MS analysis; type: ADME, organism-based; conditions: in vivo
# Mus musculus [31] = experiment: Anti-fibrotic activity in bleomycin-induced pulmonary fibrosis C57BL/6 mouse model assessed as decrease in hydroxyproline level in lung at 0.33 to 0.66 mg/kg, ip pretreated with bleomycin from day 1 and followed by compound administration for 15 days; type: functional, organism-based; conditions: dose 0.33-0.66 mg/kg, time 15.0 day
# [32] = as §1, with “7.4” for “6.5”; type: ADME
# [33] = Toxicity in C57BL/6 mouse assessed as change in AST level at 0.33 mg/kg, ip measured after 15 days; type: organism-based; conditions: in vivo, 360 h, time 15 day
# Mus musculus [34] = experiment: Anti-fibrotic activity in bleomycin-induced pulmonary fibrosis C57BL/6 mouse model assessed as decrease in hydroxyproline level in lung at 0.33 to 0.66 mg/kg, ip pretreated with bleomycin for 5 days and followed by compound administration for 15 days; type: functional, organism-based; conditions: dose 0.33-0.66 mg/kg, time 15.0 day
# Mus musculus [35] = experiment: Anti-fibrotic activity in bleomycin-induced pulmonary fibrosis C57BL/6 mouse model assessed as downregulation of ADAM 10 level in BALF at 0.66 mg/kg, ip pretreated with bleomycin for 5 days and followed by compound administration for 15 days by ELISA analysis; type: functional, organism-based; conditions: time 15.0 day
# [36] = Cytotoxicity in human HLF upto 0.625 uM; type: toxicity, cell-based
# Mus musculus [37] = experiment: Anti-fibrotic activity in bleomycin-induced pulmonary fibrosis C57BL/6 mouse model assessed as attenuation of collagen accumulation in lung at 0.33 mg/kg, ip pretreated with bleomycin for 5 days and followed by compound administration for 15 days by Masson staining based analysis; type: functional, organism-based; conditions: time 15.0 day
# [38] = Half life in Kunming mouse at 1 mg/kg, iv measured upto 48 hrs by LC/MS analysis; type: ADME, organism-based; conditions: in vivo
# [39] = Toxicity in C57BL/6 mouse assessed as pathological changes in kidney at 0.33 mg/kg, ip measured after 15 days; type: organism-based; conditions: in vivo, 360 h, time 15 day
# [40] = Toxicity in C57BL/6 mouse assessed as pathological changes in liver at 0.33 mg/kg, ip measured after 15 days; type: organism-based; conditions: in vivo, 360 h, time 15 day
# [41] = Toxicity in C57BL/6 mouse assessed as change in ALT level at 0.33 mg/kg, ip measured after 15 days; type: organism-based; conditions: in vivo, 360 h, time 15 day
# HLF [42] = experiment: Inhibition of sEphrin-B2 expression level in human HLF at 20 nM; type: functional, cell-based
# Mus musculus [43] = experiment: Anti-fibrotic activity in bleomycin-induced pulmonary fibrosis C57BL/6 mouse model assessed as decrease in lung index at 0.33 mg/kg, ip pretreated with bleomycin for 5 days and followed by compound administration for 15 days; type: functional, organism-based; conditions: time 15.0 day
smiles,measurement,setting,value
COC(=O)c1ccc2c(c1)NC(=O)/C2=C(\Nc1ccc(N(C)C(=O)CN2CCN(C)CC2)cc1)c1ccccc1,Activity,Mus musculus [1],Active
same,Activity,Mus musculus [2],Active
same,Activity,Mus musculus [3],Active
same,Activity,Mus musculus [4],Active
same,Activity,Mus musculus [5],Active
same,Activity,Mus musculus [6],Active
CC(C)[C@]12O[C@H]1[C@@H]1O[C@]13[C@]1(O[C@H]1C[C@H]1C4=C(CC[C@@]13C)C(=O)OC4)[C@@H]2OC(=O)NCC1CCCN1 (some centres not stated),solubility,[7],8.99 mg/mL
same,half-life,[8],2.46 h
same,half-life,[9],1.45 h
same,half-life,[10],1.79 h
CC(C)[C@]12O[C@H]1[C@@H]1O[C@]13[C@]1(O[C@H]1C[C@H]1C4=C(CC[C@@]13C)C(=O)OC4)[C@@H]2OC(=O)CCC(=O)[O-].[Na+] [OMTRIPTOLIDE SODIUM],solubility,[7],1.39 mg/mL
CNCCN(C)C(=O)O[C@@H]1[C@@]2(C(C)C)O[C@H]2[C@@H]2O[C@]23[C@]12O[C@H]2C[C@H]1C2=C(CC[C@@]13C)C(=O)OC2,solubility,[7],30.8 mg/mL
same,half-life,[8],17.7 h
same,Activity,Mus musculus [11],Active
same,AUC(0-inf),[12],1100 ng·h/mL
same,Activity,Mus musculus [13],Active
same,inhibition,HLF [14],Active
same,Activity,Mus musculus [15],Active
same,Activity,[16],Non-Toxic
same,MRT last at 48 h,[17],11.5 h
same,Activity,Mus musculus [18],Active
same,Activity,Mus musculus [19],Active
same,CL,[20],15.2 mL/min/kg
same,Vd,[21],0.119 L/kg
same,Activity,[22],Non-Toxic
same,Activity,Mus musculus [23],Active
same,Activity,Mus musculus [24],Active
same,t1/2,[25],81.7 h
same,Activity,Mus musculus [26],Active
same,Activity,HLF [27],Active
same,t1/2,[28],4.52 h
same,Activity,Mus musculus [29],Active
same,half-life,[9],16.4 h
same,MRT inf,[30],14.8 h
same,Activity,Mus musculus [31],Active
same,t1/2,[32],17.7 h
same,Activity,[33],Non-Toxic
same,Activity,Mus musculus [34],Active
same,Activity,Mus musculus [35],Active
same,Activity,[36],Non-Toxic
same,Activity,Mus musculus [37],Active
same,half-life,[10],17 h
same,t1/2,[38],7.72 h
same,Activity,[39],Non-Toxic
same,Activity,[40],Non-Toxic
same,Activity,[41],Non-Toxic
same,inhibition,HLF [42],Active
same,Activity,Mus musculus [43],Active
CC(C)[C@]12O[C@H]1[C@@H]1O[C@]13[C@]1(O[C@H]1C[C@H]1C4=C(CC[C@@]13C)C(=O)OC4)[C@@H]2OC(=O)NCCN,solubility,[7],12.5 mg/mL
same,half-life,[8],25.2 h
same,half-life,[9],24.5 h
same,half-life,[10],27.3 h
CC(C)[C@]12O[C@H]1[C@@H]1O[C@]13[C@]1(O[C@H]1C[C@H]1C4=C(CC[C@@]13C)C(=O)OC4)[C@@H]2OC(=O)NC1CCCCC1N (some centres not stated),solubility,[7],6.96 mg/mL
same,half-life,[8],1.85 h
same,half-life,[9],1.69 h
same,half-life,[10],1.62 h
CC(C)[C@]12O[C@H]1[C@@H]1O[C@]13[C@]1(O[C@H]1C[C@H]1C4=C(CC[C@@]13C)C(=O)OC4)[C@@H]2OCOP(=O)([O-])[O-].[Na+].[Na+] [MINNELIDE],solubility,[7],93.3 mg/mL
